Patent publication US12612343B2, “PSMA binder and use thereof” (priority 2020, dated 2026)
Several values for one entry are separate records, joined by “and”; a condition that tells them apart may be missing. Identical values can stand only once. Entries after “also recorded” stand apart in the source; their conditions may differ. Like-named read-outs stand apart in the source and are kept apart here.

How the values were obtained:
[1] = system: Human prostate cancer LNCaP cells (PSMA positive); test: LNCaP cell uptake experiment; format: cell-based; settings: for specific binding to PSMA-positive LNCaP cells: conclusion from the uptake and blocking experiment
Protocol: Human prostate cancer LNCaP cells (PSMA positive) were cultured in a RPMI 1640 medium containing 10% fetal bovine serum and 1% penicillin-streptomycin double antibody under 37° C. with 5% CO2 and saturated humidity in the incubator. When the cells reach log phase, they were digested with 0.25% trypsin, then the cells were collected and washed twice with PBS, after that a cell suspension was obtained for further culture. A fixed number of cell lines (1.0×10^6 cells/1 ml) was placed in each well of a 24-well cell culture dish, and the experiment was performed after the logarithmic growth phase.
The cells were divided into an experimental group and a blocking group. […] 6 groups of experiments were carried out in parallel. After 1 h, the culture medium was aspirated, placed in a γ-counting tube, and then washed three times with PBS. The washing solution and the culture medium were combined for storage. Then the cells were trypsinized, collected in another counting tube, and the percentage of cell uptake was calculated by a γ-counting tube.

[2] = system: biochemical recurrent prostate cancer; test: Comparison of SPECT/CT and PET/CT in 10 patients with biochemical recurrent prostate cancer; format: in vivo, human; settings: for patients found to have local recurrence in the prostatic fossa / positive rate of imaging: 5 patients per group; for positive rate of imaging: preliminary statistics; for Number of tumors / With or without local recurrence: per patient (No. 1-10), biochemical recurrence after radical prostatectomy
Protocol: 10 patients with biochemical recurrent prostate cancer were randomly divided into two groups. The basic clinical information of the two groups was similar: they both have previously received radical prostatectomy, and the current PSA of them were 1-3 ng/ml, and the GS score of them were 8-9. One group underwent ^68Ga-PSMA11 PET/CT, and the other group underwent ^99mTc-PSMA-XL SPECT/CT.

[3] = target: PSMA protein (Homo sapiens, UniProt Q04609); test: Affinity assay by Surface Plasmon Resonance (SPR); settings: binding to PSMA protein
Protocol: The binding capacity of HYNIC-PSMA-XL-2 and HYNIC-PSMA-XL-3 to PSMA protein was determined by Surface Plasmon Resonance (SPR).

[4] = system: prostate tumors versus bladder; test: Comparative imaging study with existing PSMA imaging agents in 15 prostate cancer patients; format: in vivo, human; settings: 3 groups, SPECT/CT or PET/CT (FIG. 19)
Excerpt: 15 patients with prostate cancer were randomly divided into 3 groups. One group underwent ^99mTc-HYNIC-ALUG SPECT/CT, one group underwent ^68Ga-PSMA11 PET/CT, and one group underwent ^99mTc-HYNIC-PSMA-XL3 SPECT/CT.

[5] = system: prostate cancer tumors (PSMA expression); test: SPECT/CT imaging of 10 patients with prostate cancer, with immunohistochemistry of surgical specimens; format: in vivo, human
Protocol: The patients were injected with about 740MBq of ^99mTc-HYNIC-PSMA-XL-3, and 2 hours later, they were examined by a Discovery 670 (GE, USA) scanner. Taking the right obturator internus muscle as the background, the target-to-background ratio (TBR) was calculated, and the results were shown in FIG. 15. […] Four of the five patients with primary prostate cancer underwent radical prostatectomy, and one of the three patients with biochemical recurrence prostate cancer underwent salvage lymph node dissection. Without knowing the results of ^99mTc-HYNIC-PSMA-XL-3 SPECT/CT, pathology specialists performed pathological analysis of samples. Representative sections were stained by immunohistochemistry method, deparaffinized in xylene and rehydrated in graded ethanol series. Antigen retrieval was performed with the aid of autoclave and retrieval buffer (Target Retrieval Solution, Dako). Mouse monoclonal antibody against PSMA (clone 3E6, Dako) was diluted at a 1:100 dilution and incubated overnight at 4° C., followed by immunodetection using the Histostain-Plus Detection Kit (Invitrogen). Stained sections were scanned using Nanozoomer 2.0-[…] (Hamamatsu Photonics) to generate digital overall images.

[6] = upper bound calculated from ka, as kd was beyond the detection limit, read-out: KD value (SPR method)

PSMA protein, sequence (Q04609 whole entry): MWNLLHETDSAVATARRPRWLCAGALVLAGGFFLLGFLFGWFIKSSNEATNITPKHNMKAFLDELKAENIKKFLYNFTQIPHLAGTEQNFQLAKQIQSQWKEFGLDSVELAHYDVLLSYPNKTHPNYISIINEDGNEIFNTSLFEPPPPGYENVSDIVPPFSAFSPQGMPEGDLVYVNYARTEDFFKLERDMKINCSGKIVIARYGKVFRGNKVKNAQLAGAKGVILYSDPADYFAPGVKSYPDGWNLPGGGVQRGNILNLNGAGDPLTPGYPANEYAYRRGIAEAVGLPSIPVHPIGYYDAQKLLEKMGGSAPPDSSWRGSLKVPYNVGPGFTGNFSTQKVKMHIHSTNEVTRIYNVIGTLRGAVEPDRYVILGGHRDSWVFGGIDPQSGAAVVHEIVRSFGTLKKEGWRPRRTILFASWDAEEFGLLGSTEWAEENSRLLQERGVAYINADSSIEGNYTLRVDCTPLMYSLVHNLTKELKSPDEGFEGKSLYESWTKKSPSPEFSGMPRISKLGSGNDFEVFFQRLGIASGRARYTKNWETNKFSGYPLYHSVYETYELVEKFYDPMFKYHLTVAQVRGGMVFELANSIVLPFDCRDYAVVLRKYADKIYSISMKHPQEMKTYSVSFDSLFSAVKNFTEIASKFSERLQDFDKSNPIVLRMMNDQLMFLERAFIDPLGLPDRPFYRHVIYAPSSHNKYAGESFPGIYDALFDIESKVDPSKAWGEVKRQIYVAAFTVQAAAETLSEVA

## O=C(O)CCC(NC(=O)NC(CCCCNC(=O)C(Cc1ccc2ccccc2c1)NC(=O)c1ccc(CNC(=O)C(CCC(=O)O)NC(=O)c2ccc(N[N]=[99Tc]3([Cl])[O]C(=O)CNCCNCC(=O)[O]3)nc2)cc1)C(=O)O)C(=O)O (stereo not drawn) [^99mTc-HYNIC/EDDA-PSMA-XL-3]
[1]; LNCaP cells, 0.5 μCi per well, 1 h
  percentage of cell uptake, Experimental group: 14.01 ± 1.11%
[1]; LNCaP cells, 1 h, excess 2-PMPA (1000-fold molar equivalent) added half an hour in advance
  percentage of cell uptake, Blocking group: 2.66 ± 0.51%
[2]
  patients found to have local recurrence in the prostatic fossa: 1
  positive rate of imaging: 80%
[2]; listed as 99mTc-PSMA-XL
  Number of tumors: 3 and 1 and 2 and 0 and 4
  With or without local recurrence: yes and no (4×)

## NNc1ccc(C(=O)NC(CCC(=O)O)C(=O)NC(CCC(=O)O)C(=O)NCc2ccc(C(=O)NC(Cc3ccc4ccccc4c3)C(=O)NCCCCC(NC(=O)NC(CCC(=O)O)C(=O)O)C(=O)O)cc2)cn1 (stereo not drawn) [HYNIC-PSMA-XL-2, Glu-Urea-Lys-2Nal-AMB-Glu-Glu-HYNIC]
[3]; [6]
  Kd: < 0.00643 nM

## O=C(O)CCC(NC(=O)NC(CCCCNC(=O)C(Cc1ccc2ccccc2c1)NC(=O)c1ccc(CNC(=O)C(CCC(=O)O)NC(=O)C(CCC(=O)O)NC(=O)c2ccc(N[N]=[99Tc]345([Cl])[O]C(=O)C[N]3CC[N]4CC(=O)[O]5)nc2)cc1)C(=O)O)C(=O)O (stereo not drawn) [^99mTc-HYNIC/EDDA-PSMA-XL-2]
[1]
  specific binding to PSMA-positive LNCaP cells: highly specifically bind

## O=C([O-])CN(CCN(CC(=O)[O-])Cc1cc(CCC(=O)NCCCCCC(=O)NCCCC[C@H](NC(=O)N[C@@H](CCC(=O)O)C(=O)O)C(=O)O)ccc1[O-])Cc1cc(CCC(=O)O)ccc1[O-].[68Ga+3].[OH3+] [^68Ga-PSMA11, reference compound]
[4]
  distribution of radioactivity in the bladder: higher radiophysiological distribution; also recorded: high physiological distributions in the bladder
[2]
  patients found to have local recurrence in the prostatic fossa: 1
  positive rate of imaging: 80%
  Number of tumors: 1 (2×) and 4 and 0 and 2
  With or without local recurrence: no (4×) and yes

## NNc1ccc(C(=O)NC(CCC(=O)O)C(=O)NCc2ccc(C(=O)NC(Cc3ccc4ccccc4c3)C(=O)NCCCCC(NC(=O)NC(CCC(=O)O)C(=O)O)C(=O)O)cc2)cn1 (stereo not drawn) [HYNIC-PSMA-XL-3, Glu-Urea-Lys-2Nal-AMB-Glu-HYNIC]
[3]; [6]
  Kd: < 0.00486 nM

## O=C(O)CCC(NC(=O)NC(CCCCNC(=O)C(Cc1ccc2ccccc2c1)NC(=O)c1ccc(CNC(=O)C(CCC(=O)O)NC(=O)c2ccc(N[N]=[99Tc]345([Cl])[O]C(=O)C[N]3CC[N]4CC(=O)[O]5)nc2)cc1)C(=O)O)C(=O)O (stereo not drawn) [^99mTc-HYNIC/EDDA-PSMA-XL-3]
[4]; listed as 99mTc-HYNIC-PSMA-XL3
  distribution of radioactivity in the bladder: very low distribution of radioactivity
[4]; listed as 99mTc-HYNIC-PSMA-XL-3
  distribution of radioactivity in the bladder: less distribution of radioactivity in the bladder
[1]
  specific binding to PSMA-positive LNCaP cells: highly specifically bind
[5]; patients who underwent surgery, listed as 99mTc-HYNIC-PSMA-XL-3
  consistency of SPECT/CT tumor uptake with immunohistochemical PSMA expression of surgical specimens: highly consistent
[5]; patients, about 740 MBq, SPECT/CT 2 hours after injection, compared with tumor uptake
  distribution of radioactivity in the bladder: low
[5]; patients, about 740 MBq, SPECT/CT 2 hours after injection, metastases such as lymph nodes/bone
  tumor targeting: high

## O=C(O)CCc1ccc(O)c(CN(CCN(CC(=O)O)Cc2cc(CCC(=O)NCCCCCC(=O)NCCCC[C@H](NC(=O)N[C@@H](CCC(=O)O)C(=O)O)C(=O)O)ccc2O)CC(=O)O)c1 [PSMA11, reference compound]
[3]; reference PSMA inhibitors, same method
  Kd: 1.25 nM
